{"source": "patent US4024224A", "about": "“14-Aminodaunomycins, their preparation and use” (priority 1974, dated 1977)", "key": {"Solid Sarcoma 180": {"test_system": "Solid Sarcoma 180", "assay": "Antitumor activity and toxicity on solid Sarcoma 180 in CD 1 mice", "type": "in vivo", "settings": "for Tumor Volume T/C %: 11th day; for Toxic Deaths: deaths/total", "protocol": "(§1) The toxicity of the test compounds was evaluated by macroscopic autoptic examination mainly in terms of reduction in spleen size. The comparison of the effectiveness of the test compounds is based on the maximum increase in median survival time, as compared to untreated controls, over the dose range used. The number of Long Term Survivors (LTS) refers to tumor-free mice at the end of the experiment (60 days). Solid Sarcoma 180 was implanted subcutaneously by trocar in the flank of CD 1 mice according to standard methods. The mice were treated i.v. for 5 consecutive days, starting 1 day after the tumor implant. On the 11th day the tumor volume was measured by means of a caliper and evaluated according to the formula (a^2 × b)/2, a and b being the minimum and the maximum diameters respectively."}, "[1]": {"assay": "Antitumor activity and toxicity on ascites Sarcoma 180 in CD 1 mice", "type": "in vivo", "settings": "mouse, in vivo, ip, read-out: % Toxic Deaths", "protocol": "(§2) The antitumor activity of the compounds of the invention was tested on ascites Sarcoma 180.\n(§3) Three month old CD 1 mice were used. Sarcoma 180 ascites cells were inoculated intraperitoneally (10^6 cells/mouse). For use in these tests, the compounds were dissolved in distilled water or in 5% ethyl alcohol in distilled water, then diluted with Ringers solution and administered i.p. 1 day after the tumor implant (10 ml./kg. of body weight).\nas §1"}, "ascites Sarcoma 180": {"test_system": "ascites Sarcoma 180", "assay": "Antitumor activity and toxicity on ascites Sarcoma 180 in CD 1 mice", "type": "in vivo", "settings": "for % LTS: 60 days; for LTS (Long Term Survivors after 60 days): survivors/total; for Toxic Deaths: deaths/total", "protocol": "as §2, §3, §1"}, "[2]": {"assay": "Proliferation of uninfected mouse embryo fibroblasts (MEF)", "type": "cell-based", "settings": "mouse, mouse embryo fibroblasts; calculated on dose-effects lines; uninfected MEF, 3 days treatment; read-out: MEF proliferation ID 50 (Inhibiting Dose 50%)", "protocol": "(§4) Mouse embryo fibroblasts (MEF) were plated on 35 mm. Falcon plastic dishes and infected 24 hours later with Moloney Sarcoma Virus (MSV) in the presence of DEAE-dextran (25 μg./ml.). The samples were then treated for 3 days with different concentrations of the compounds of the invention. The number of foci of transformed cells was microscopically determined 5 days after the infection. Uninfected MEF were similarly treated and at the end of the experiment, the cells were counted in an haemocytometer. In all the experiments, the cells were incubated in a 5% CO2 incubator at 37° C.\n(§5) For use in these tests the compounds were dissolved in distilled water or in 5% ethyl alcohol in distilled water and then diluted in culture medium."}, "Mouse Embryo Fibroblasts": {"test_system": "Mouse Embryo Fibroblasts", "assay": "Proliferation of uninfected mouse embryo fibroblasts (MEF)", "type": "cell-based", "settings": "Mus musculus, Fibroblast, 72 h, uninfected MEF, 3 days treatment, read-out: MEF No. of cells", "protocol": "as §4, §5"}, "[3]": {"test_system": "Moloney Sarcoma Virus (MSV)", "assay": "Inhibition of MSV-M foci formation in mouse embryo fibroblasts", "type": "cell-based", "settings": "Fibroblast, 120 h, 3 days treatment", "protocol": "as §4, §5\nThe results of these tests are reported in Table I in terms of ID50 values (Inhibiting Dose 50%), calculated on dose-effects lines."}, "[4]": {"settings": "3 mg./kg. i.v. for 5 consecutive days"}, "[5]": {"settings": "4 mg./kg. i.v. for 5 consecutive days"}, "[6]": {"settings": "5 mg./kg. i.v. for 5 consecutive days"}, "[7]": {"settings": "0.2 mg./kg. i.p. 1 day after tumor implant"}, "[8]": {"settings": "1 mg./kg. i.p. 1 day after tumor implant"}, "[9]": {"settings": "5 mg./kg. i.p. 1 day after tumor implant"}, "[10]": {"settings": "25 mg./kg. i.p. 1 day after tumor implant"}, "[11]": {"settings": "50 mg./kg. i.p. 1 day after tumor implant"}, "[12]": {"settings": "100 mg./kg. i.p. 1 day after tumor implant"}}, "note": "Where two headings read alike, the source gives them in different places.", "data": [{"smiles": "COc1cccc2c1C(=O)c1c(O)c3c(c(O)c1C2=O)C[C@@](O)(C(=O)CN1CCOCC1)C[C@@H]3O[C@H]1C[C@H](N)[C@H](O)[C@H](C)O1", "note": "[14-(N-morpholino)-daunomycin]", "values": [{"measurement": "Tumor Volume T/C %", "setting": "Solid Sarcoma 180; [4]", "result": 77, "unit": "%"}, {"measurement": "Toxic Deaths", "setting": "Solid Sarcoma 180; [4]", "result": "0/10"}, {"measurement": "Tumor Volume T/C %", "setting": "Solid Sarcoma 180; [5]", "result": 64, "unit": "%"}, {"measurement": "Toxic Deaths", "setting": "Solid Sarcoma 180; [5]", "result": "0/10"}, {"measurement": "Tumor Volume T/C %", "setting": "Solid Sarcoma 180; [6]", "result": 69, "unit": "%"}, {"measurement": "Toxic Deaths", "setting": "Solid Sarcoma 180; [6]", "result": "0/10"}, {"measurement": "mortality", "setting": "[1]; 0.2 mg./kg. i.p.", "result": 0, "unit": "%"}, {"measurement": "mortality", "setting": "[1]; 1 mg./kg. i.p.", "result": 0, "unit": "%"}, {"measurement": "mortality", "setting": "[1]; 5 mg./kg. i.p.", "result": 0, "unit": "%"}, {"measurement": "mortality", "setting": "[1]; 25 mg./kg. i.p.", "result": 0, "unit": "%"}, {"measurement": "mortality", "setting": "[1]; 50 mg./kg. i.p.", "result": 14, "unit": "%"}, {"measurement": "mortality", "setting": "[1]; 100 mg./kg. i.p.", "result": 85, "unit": "%"}, {"measurement": "T/C (median survival time, % over untreated controls)", "setting": "ascites Sarcoma 180; [7]", "result": 103, "unit": "%"}, {"measurement": "% LTS", "setting": "ascites Sarcoma 180; [7]", "result": 0, "unit": "%"}, {"measurement": "LTS (Long Term Survivors after 60 days)", "setting": "ascites Sarcoma 180; [7]", "result": "0/10"}, {"measurement": "Toxic Deaths", "setting": "ascites Sarcoma 180; 0.2 mg./kg. i.p.", "result": "0/10"}, {"measurement": "T/C (median survival time, % over untreated controls)", "setting": "ascites Sarcoma 180; [8]", "result": 111, "unit": "%"}, {"measurement": "% LTS", "setting": "ascites Sarcoma 180; [8]", "result": 0, "unit": "%"}, {"measurement": "LTS (Long Term Survivors after 60 days)", "setting": "ascites Sarcoma 180; [8]", "result": "0/10"}, {"measurement": "Toxic Deaths", "setting": "ascites Sarcoma 180; 1 mg./kg. i.p.", "result": "0/10"}, {"measurement": "T/C (median survival time, % over untreated controls)", "setting": "ascites Sarcoma 180; [9]", "result": 133, "unit": "%"}, {"measurement": "% LTS", "setting": "ascites Sarcoma 180; [9]", "result": 30, "unit": "%"}, {"measurement": "LTS (Long Term Survivors after 60 days)", "setting": "ascites Sarcoma 180; [9]", "result": "3/10"}, {"measurement": "Toxic Deaths", "setting": "ascites Sarcoma 180; 5 mg./kg. i.p.", "result": "0/10"}, {"measurement": "T/C (median survival time, % over untreated controls)", "setting": "ascites Sarcoma 180; [10]", "result": 223, "unit": "%"}, {"measurement": "% LTS", "setting": "ascites Sarcoma 180; [10]", "result": 29, "unit": "%"}, {"measurement": "LTS (Long Term Survivors after 60 days)", "setting": "ascites Sarcoma 180; [10]", "result": "5/17"}, {"measurement": "Toxic Deaths", "setting": "ascites Sarcoma 180; 25 mg./kg. i.p.", "result": "0/17"}, {"measurement": "T/C (median survival time, % over untreated controls)", "setting": "ascites Sarcoma 180; [11]", "result": 100, "unit": "%"}, {"measurement": "% LTS", "setting": "ascites Sarcoma 180; [11]", "result": 0, "unit": "%"}, {"measurement": "LTS (Long Term Survivors after 60 days)", "setting": "ascites Sarcoma 180; [11]", "result": "0/7"}, {"measurement": "Toxic Deaths", "setting": "ascites Sarcoma 180; 50 mg./kg. i.p.", "result": "1/7"}, {"measurement": "T/C (median survival time, % over untreated controls)", "setting": "ascites Sarcoma 180; [12]", "result": 50, "unit": "%"}, {"measurement": "% LTS", "setting": "ascites Sarcoma 180; [12]", "result": 14, "unit": "%"}, {"measurement": "LTS (Long Term Survivors after 60 days)", "setting": "ascites Sarcoma 180; [12]", "result": "1/7"}, {"measurement": "Toxic Deaths", "setting": "ascites Sarcoma 180; 100 mg./kg. i.p.", "result": "6/7"}, {"measurement": "IC50 at 72 h", "setting": "[2]", "result": 0.5, "unit": "µg/mL"}, {"measurement": "activity at 0.0062 µg/mL", "setting": "Mouse Embryo Fibroblasts; dose 0.0062 μg/ml", "result": 81, "unit": "%"}, {"measurement": "activity at 0.025 µg/mL", "setting": "Mouse Embryo Fibroblasts; dose 0.0250 μg/ml", "result": 68, "unit": "%"}, {"measurement": "activity at 0.1 µg/mL", "setting": "Mouse Embryo Fibroblasts; dose 0.1 μg/ml", "result": 31, "unit": "%"}, {"measurement": "activity at 0.4 µg/mL", "setting": "Mouse Embryo Fibroblasts; dose 0.4 μg/ml", "result": 21, "unit": "%"}, {"measurement": "IC50", "setting": "[3]; calculated on dose-effects lines, read-out: MSV-M foci ID 50 (Inhibiting Dose 50%)", "result": 0.032, "unit": "µg/mL"}, {"measurement": "activity at 0.0062 µg/mL", "setting": "[3]; dose 0.0062 μg/ml, foci counted 5 days after infection, read-out: MSV-M No. of foci", "result": 78, "unit": "%"}, {"measurement": "activity at 0.025 µg/mL", "setting": "[3]; dose 0.0250 μg/ml, foci counted 5 days after infection, read-out: MSV-M No. of foci", "result": 69, "unit": "%"}, {"measurement": "activity at 0.1 µg/mL", "setting": "[3]; dose 0.1 μg/ml, foci counted 5 days after infection, read-out: MSV-M No. of foci", "result": 17, "unit": "%"}, {"measurement": "activity at 0.4 µg/mL", "setting": "[3]; dose 0.4 μg/ml, foci counted 5 days after infection, read-out: MSV-M No. of foci", "result": 0, "unit": "%"}]}]}
